Reference: patent US4606856A, “[Des-1-amino, 8-glycine]calcitonin” (priority 1985, dated 1986)

Columns and labels:
[1] = system: serum calcium concentration; settings: standard salmon calcitonin used in the assay; cited from earlier work
[2] = system: serum calcium concentration; assay: Biological assay of calcitonin analogs in vivo: reduction of serum calcium concentration, 2×2 parallel line assay; settings: rats, subcutaneous injection, serum calcium 1 hour later, compared with synthetic salmon calcitonin standard
Method: Rats were divided into four groups of seven animals, and each group was assigned at random to a dose of standard or test solution. Low and high doses were chosen from the linear portion of the dose-response curve. For the salmon calcitonin standard, the values were 0.7 and 2.1 ng. peptide/100 g. body weight (BW). This dose approximates 3 and 9 MU/100 g. BW. Peptides were given by subcutaneous injection (0.2 ml/100 g. BW) and blood was withdrawn 1 hour later for serum calcium determination. Sera are processed and analyzed within two hours of collection. Results were analyzed within two hours of collection. Results were analyzed by a 2×2 parallel line assay [Gaddum, J. H., J. Pharm.

Substance	biological potency of the standard, independently determined [1]	biological potency [2] [IU/mg]
Salmon calcitonin [standard salmon calcitonin]	greater than 4,000 IU/mg	
[Des-1-Amino, 8-Glycine]salmon calcitonin [[Des-1-Amino, Gly^8]SCT]		4750
